In patent US6872743B2, “sPLA2 inhibitors” (Eli Lilly and Company, priority 2000, dated 2005) one finds IC50 data, which are given here for three molecules.

This experiment deals with T1, recombinant human secreted phospholipase A2 (Homo sapiens, UniProt P14555).
T1 sequence (P14555 21-144): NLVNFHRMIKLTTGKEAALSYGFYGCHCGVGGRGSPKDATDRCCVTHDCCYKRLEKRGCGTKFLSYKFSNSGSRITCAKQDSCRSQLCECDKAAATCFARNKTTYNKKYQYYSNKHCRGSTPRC
Kind of experiment: chromogenic assay for inhibitors of recombinant human secreted phospholipase A2. Type of experiment: biochemical. Particulars: diheptanoyl thio-PC substrate, pH 7.5, 40° C. for 30 minutes, absorbance at 405 nanometers, titrated in triplicate. The source says:
The following chromogenic assay procedure was used to identify and evaluate inhibitors of recombinant human secreted phospholipase A2. The assay described herein has been adapted for high volume screening using 96 well microtiter plates. A general description of this assay method is found in the article, “Analysis of Human Synovial Fluid Phospholipase A2 on Short Chain Phosphatidylcholine-Mixed Micelles: Development of a Spectrophotometric Assay Suitable for a Microtiterplate Reader”, by Laure J. Reynolds, Lori L. Hughes, and Edward A Dennis, Analytical Biochemistry, 204, pp. 190-197, 1992 (the disclosure of which is incorporated herein by reference):
A measured volume of racemic dipheptanoyl thio PC supplied in chloroform at a concentration of 100 mg/ml is taken to dryness and redissolved in 10 millimolar TRITON X-100™ nonionic detergent aqueous solution. Reaction Buffer is added to the solution, then DTNB to give the Reaction Mixture.
The reaction mixture thus obtained contains 1 mM diheptanoly thio-PC substrate, 0.29 mm Triton X-100™ detergent, and 0.12 mm DTMB in a buffered aqueous solution at pH 7.5.
• 1. Add 0.2 ml reaction mixture to all wells; • 2. Add 10 ul test compound (or solvent blank) to appropriate wells, mix 20 seconds; • 3. Add 50 nanograms of sPLA2 (10 microliters) to appropriate wells; • 4. Incubate plate at 40° C. for 30 minutes; • 5. Read absorbance of wells at 405 nanometers with an automatic plate reader.
Tests were done in triplicate. Typically, compounds were tested at a final concentration of 5 ug/ml. […] Lack of color development at 405 nanometers evidenced inhibition. Compounds initially found to be active were re-assayed to confirm their activity and, if sufficiently active, IC50 values were determined. […] In all cases, % inhibition measured at 405 nanometers generated by enzyme reactions containing inhibitors relative to the uninhibited control reactions was determined. […] IC50 values were determined by plotting log concentration versus inhibition values in the range from 10-90% inhibition.
In the case of `NC(=O)c1cccc2c1c1c(OCC(=O)O)cc3c(c1n2Cc1ccccc1)CCCC3` [Example 1, (11-Benzyl-7-carbamoyl-2,3,4,11-tetraydro-1H-benzo[a]carbazol-6-yloxy)acetic Acid], the IC50 turned out to be 0.015 µM. Under `NC(=O)c1cccc2c1c1c(OCC(=O)O)cc3c(c1n2Cc1ccccc1)CCC3` [Example 2, (10-Benzyl-6-carbamoyl-1,2,3,10-tetraydrocyclopenta[a]carbazol-5-yloxy)acetic Acid] stands 0.012 µM. On to `COC(=O)COc1cc2ccccc2c2c1c1c(C(N)=O)cccc1n2Cc1ccccc1` [Example 3, (11-Benzyl-7-carbamoyl-11H-benzo [a]carbazol-6-yloxy)acetic acid methyl ester], for which the IC50 amounted to 0.0094 µM.

As usually defined, the IC50 is the midpoint of a concentration-inhibition curve.
